System: CD-1 mice
Experiment: In vivo efficacy test - marble burying
Parameters: species or system mouse
Settings: male CD-1 mice, 10 and 30 mg/kg po, dosed 30 min prior to test; doses tested 1, 3, 10 and 30 mg/kg; one-way ANOVA with Dunnett's post-hoc test

For `N#Cc1cc(Cl)cc(-c2cc(-c3ccc(F)cn3)ncn2)c1` [Example 17, 3-chloro-5-[6-(5-fluoropyridin-2-yl)pyrimidin-4-yl]benzonitrile], the “number of marbles buried versus vehicle group” value was “statistically significant decrease in the number of marbles buried”.
